# Experimental data reported in patent publication US6495715B2, “Calcium channel blockers” (Warner-Lambert Company, priority 1997, dated 2002).
# Molecular target: T1, N-type Ca2+ channel (Homo sapiens, UniProt Q00975)
# T1 construct: host or cells: IMR-32 cells, differentiated with dibutyryl cAMP and bromodeoxyuridine
# Assay: Measurement of N-type Ca2+ channel blocking potencies in IMR-32 cells using the fluorescent Ca2+ indicator Indo-1
# Type: cell-based
# Settings: for inhibition at 1 µM / IMR 32 % of Blockade @ 1 μM: 1 μM compound; for inhibition at 1 µM: read-out: IMR 32 % of Blockade @ 1 μM; for inhibition at 10 µM / IMR 32 % of Blockade @ 10 μM: 10 μM compound; for inhibition at 10 µM: read-out: IMR 32 % of Blockade @ 10 μM
# Experimental: Measurement of N-type Ca^2+ Channel Blocking Potencies of Compounds in IMR-32 Cells Using the Fluorescent Ca^2+Indicator Indo-1
# IMR-32 cells are a human tumoral cell line of neural origin. […] Calcium flux into these cells may be induced by stimulation with elevated potassium concentrations. The L-channel component of calcium flux may be blocked by adding 5 μM nitrendipine. The remaining component of calcium entry into the IMR-32 cells is due to calcium flux through N-type calcium channels. Intracellular calcium concentrations are measured using the fluorescent calcium indicator Indo-1. The effect of drug concentration on calcium uptake is studied.
# The IMR-32 cell line was obtained from the American Type Culture Collection (Rockville, Md.). Cells were grown in Eagle's Minimum Essential Medium with Earle's salts supplemented with 10% fetal bovine serum, 2 mM L-Gln and antibiotic/antimycotic mixture (Gibco). […] After 7 to 13 days of differentiation, cells were detached using 0.5 mM EDTA and loaded with 5 μM Indo-1 acetoxymethyl ester (Molecular Probes, Eugene, Oreg.) at 30° C. for 45 minutes. Loaded cells were washed twice, resuspended (˜10^7 cells/mL) in assay buffer (10 mM HEPES/Tris pH 7.4 in Hank's Balanced Salt Solution without bicarbonate or phenol red containing 0.5% bovine serum albumin) and kept on ice until use. Fluorescence measurements were carried out in a Photon Technology International (PTI, South Brunswick, N.J.) Model RF-F3004 spectrofluorometer with dual emission monochromators using excitation at […] and emission at 400 and 490 nm. The instrument was equipped with a thermostated cuvette holder with stirring capabilities as well as with a computer-controlled pump which allowed for reagent addition during measurement. Instrument control and data collection was done by PTI's OSCAR software running on an IBM compatible computer. Different concentrations of the test compounds (60 μL in dimethyl sulfoxide) were added to 5.94 mL of assay buffer containing approximately 3×10^6 loaded cells, and 5 μM Nitrendipine (in […] EtOH) to block L-type Ca^2+ channels. Samples were incubated for 10 minutes at 30° C. and then aliquoted into three 10×10 mm disposable acrylic cuvettes. Emission signals at 400 and 490 nm were acquired from each cuvette at 30° C. for 50 seconds. At 20 seconds after the start of reading, cells were depolarized by the addition of 160 μL of stimulation solution (1 M KCl, 68 mM CaCl2) to the cuvette via the computer-controlled pump. Ratio of dual emission signals (400 nm/490 nm), which is proportional to intracellular Ca^2+ concentration, was plotted against time, and the difference between maximal response after stimulation and basal value (before stimulation) was determined. Values obtained in this way were plotted as a function of drug concentration. IC50 values of test compounds were calculated by fitting a four-parameter logistic function to the data using the least squares method.
# T1 sequence (Q00975 whole entry): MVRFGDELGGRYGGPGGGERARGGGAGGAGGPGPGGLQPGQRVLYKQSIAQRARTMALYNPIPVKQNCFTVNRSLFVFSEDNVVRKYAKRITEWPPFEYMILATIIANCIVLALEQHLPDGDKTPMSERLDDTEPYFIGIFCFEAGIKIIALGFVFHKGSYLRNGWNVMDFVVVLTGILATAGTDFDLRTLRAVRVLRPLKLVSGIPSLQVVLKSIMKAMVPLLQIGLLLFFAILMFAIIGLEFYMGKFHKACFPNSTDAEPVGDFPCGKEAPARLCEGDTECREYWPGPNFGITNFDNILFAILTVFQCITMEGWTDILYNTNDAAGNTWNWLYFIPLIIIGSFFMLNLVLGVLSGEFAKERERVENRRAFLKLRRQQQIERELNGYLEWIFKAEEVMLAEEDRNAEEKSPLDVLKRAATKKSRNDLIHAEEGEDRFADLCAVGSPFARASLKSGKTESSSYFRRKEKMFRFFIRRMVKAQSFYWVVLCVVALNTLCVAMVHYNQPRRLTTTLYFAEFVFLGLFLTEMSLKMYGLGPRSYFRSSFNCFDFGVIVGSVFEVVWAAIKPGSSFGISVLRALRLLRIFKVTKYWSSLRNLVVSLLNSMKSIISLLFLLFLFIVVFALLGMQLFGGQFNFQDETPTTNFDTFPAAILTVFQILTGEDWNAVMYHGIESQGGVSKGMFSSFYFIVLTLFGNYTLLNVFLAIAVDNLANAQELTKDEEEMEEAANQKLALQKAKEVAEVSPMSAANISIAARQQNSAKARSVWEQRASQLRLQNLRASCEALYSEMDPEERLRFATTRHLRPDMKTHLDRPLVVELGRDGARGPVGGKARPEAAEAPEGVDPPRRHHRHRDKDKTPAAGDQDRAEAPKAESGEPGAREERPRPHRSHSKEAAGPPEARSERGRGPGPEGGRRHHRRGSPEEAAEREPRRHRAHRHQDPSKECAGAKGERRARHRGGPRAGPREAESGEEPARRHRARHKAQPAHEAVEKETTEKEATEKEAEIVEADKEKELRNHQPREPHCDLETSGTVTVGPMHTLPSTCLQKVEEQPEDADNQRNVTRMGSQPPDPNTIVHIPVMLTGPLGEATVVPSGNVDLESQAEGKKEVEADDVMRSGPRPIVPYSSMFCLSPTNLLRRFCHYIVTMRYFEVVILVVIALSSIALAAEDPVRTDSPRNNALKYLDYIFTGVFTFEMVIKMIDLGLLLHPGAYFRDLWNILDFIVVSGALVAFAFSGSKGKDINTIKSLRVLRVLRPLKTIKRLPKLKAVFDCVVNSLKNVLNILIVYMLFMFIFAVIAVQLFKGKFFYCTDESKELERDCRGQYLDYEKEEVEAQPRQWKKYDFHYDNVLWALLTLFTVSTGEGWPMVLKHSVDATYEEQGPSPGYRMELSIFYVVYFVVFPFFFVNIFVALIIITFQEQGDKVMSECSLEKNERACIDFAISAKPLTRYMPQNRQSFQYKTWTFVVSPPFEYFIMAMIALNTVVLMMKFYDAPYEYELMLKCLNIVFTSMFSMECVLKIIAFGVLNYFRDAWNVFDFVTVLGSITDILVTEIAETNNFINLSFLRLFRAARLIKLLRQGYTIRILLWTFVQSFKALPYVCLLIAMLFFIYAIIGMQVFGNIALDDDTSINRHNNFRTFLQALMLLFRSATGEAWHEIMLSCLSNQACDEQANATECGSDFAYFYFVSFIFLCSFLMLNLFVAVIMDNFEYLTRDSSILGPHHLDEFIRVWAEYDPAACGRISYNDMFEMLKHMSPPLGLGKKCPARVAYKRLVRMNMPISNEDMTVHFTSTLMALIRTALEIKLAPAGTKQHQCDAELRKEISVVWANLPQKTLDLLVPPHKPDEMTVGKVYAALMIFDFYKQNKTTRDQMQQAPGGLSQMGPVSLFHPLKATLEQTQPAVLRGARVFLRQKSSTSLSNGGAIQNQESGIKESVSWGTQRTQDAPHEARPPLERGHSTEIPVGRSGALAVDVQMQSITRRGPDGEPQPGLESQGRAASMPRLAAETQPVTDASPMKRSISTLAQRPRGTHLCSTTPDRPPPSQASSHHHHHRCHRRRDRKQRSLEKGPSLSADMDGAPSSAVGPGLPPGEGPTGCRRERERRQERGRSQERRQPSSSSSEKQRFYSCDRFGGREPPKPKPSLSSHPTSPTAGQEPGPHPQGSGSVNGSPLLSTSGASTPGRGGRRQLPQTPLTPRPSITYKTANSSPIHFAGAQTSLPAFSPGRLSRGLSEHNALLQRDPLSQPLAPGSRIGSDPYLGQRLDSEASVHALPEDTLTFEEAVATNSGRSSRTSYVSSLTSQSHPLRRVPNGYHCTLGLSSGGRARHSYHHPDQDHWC
# T1 sequence (P54289 25-956 partner limits assumed): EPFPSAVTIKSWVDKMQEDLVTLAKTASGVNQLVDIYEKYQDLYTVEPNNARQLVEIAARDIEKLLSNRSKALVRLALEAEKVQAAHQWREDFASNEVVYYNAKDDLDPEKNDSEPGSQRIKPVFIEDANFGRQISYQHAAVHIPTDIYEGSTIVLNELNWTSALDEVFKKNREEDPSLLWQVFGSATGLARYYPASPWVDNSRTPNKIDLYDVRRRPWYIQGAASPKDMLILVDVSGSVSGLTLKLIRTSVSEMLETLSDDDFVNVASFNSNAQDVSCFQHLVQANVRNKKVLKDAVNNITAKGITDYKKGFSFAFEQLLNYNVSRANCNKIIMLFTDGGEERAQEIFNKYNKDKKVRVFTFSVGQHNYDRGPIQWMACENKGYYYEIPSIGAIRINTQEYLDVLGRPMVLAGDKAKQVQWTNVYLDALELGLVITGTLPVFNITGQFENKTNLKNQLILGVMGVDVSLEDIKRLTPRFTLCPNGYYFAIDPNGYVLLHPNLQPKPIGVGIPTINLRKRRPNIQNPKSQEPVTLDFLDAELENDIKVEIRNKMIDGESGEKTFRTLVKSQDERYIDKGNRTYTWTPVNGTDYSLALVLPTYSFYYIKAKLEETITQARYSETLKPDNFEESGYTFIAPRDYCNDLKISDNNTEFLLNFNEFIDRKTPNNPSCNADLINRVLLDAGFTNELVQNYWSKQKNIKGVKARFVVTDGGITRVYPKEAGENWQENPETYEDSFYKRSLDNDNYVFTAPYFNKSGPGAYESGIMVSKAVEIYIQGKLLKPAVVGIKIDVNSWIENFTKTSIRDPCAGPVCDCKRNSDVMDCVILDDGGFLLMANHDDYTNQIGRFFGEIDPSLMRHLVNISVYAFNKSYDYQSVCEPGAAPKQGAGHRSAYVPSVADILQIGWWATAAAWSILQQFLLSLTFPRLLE
# T1 sequence (P54289 957-1103 partner limits assumed): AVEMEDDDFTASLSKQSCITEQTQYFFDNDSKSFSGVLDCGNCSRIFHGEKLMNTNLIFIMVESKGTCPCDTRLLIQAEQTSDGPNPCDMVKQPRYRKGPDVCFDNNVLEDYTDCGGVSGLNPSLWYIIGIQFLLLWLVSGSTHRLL
# T1 sequence (Q02641 whole entry partner): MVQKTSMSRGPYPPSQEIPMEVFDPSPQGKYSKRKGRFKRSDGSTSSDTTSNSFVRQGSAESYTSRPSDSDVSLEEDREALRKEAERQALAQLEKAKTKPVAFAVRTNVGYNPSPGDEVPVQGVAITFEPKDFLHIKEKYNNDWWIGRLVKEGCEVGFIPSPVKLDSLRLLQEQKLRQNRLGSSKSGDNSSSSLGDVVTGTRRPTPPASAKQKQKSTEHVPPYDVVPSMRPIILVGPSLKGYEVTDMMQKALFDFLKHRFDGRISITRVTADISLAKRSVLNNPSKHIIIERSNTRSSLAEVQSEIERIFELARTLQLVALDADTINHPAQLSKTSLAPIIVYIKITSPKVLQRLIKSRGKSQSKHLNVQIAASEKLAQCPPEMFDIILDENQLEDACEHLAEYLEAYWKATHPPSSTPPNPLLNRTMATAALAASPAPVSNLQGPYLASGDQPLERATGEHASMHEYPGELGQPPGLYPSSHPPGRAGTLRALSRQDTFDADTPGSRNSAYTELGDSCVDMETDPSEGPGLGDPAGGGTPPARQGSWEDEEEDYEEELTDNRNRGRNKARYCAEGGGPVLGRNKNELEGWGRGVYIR
smiles,measurement,setting,value
"CC(C)=CCN(c1ccc(OCc2ccccc2)cc1)C1CCCN(C(=O)[C@@H](N)CC(C)C)C1 (mixture of isomers) [Example 45, (S, R/S)-2-Amino-1-{3-[(4-benzyloxy-phenyl)-(3-methyl-but-2-enyl)-amino]-piperidin-1-yl}-4-methyl-pentan-1-one]",inhibition at 1 µM,5 μM nitrendipine,40%
same,inhibition at 10 µM,5 μM nitrendipine,100%
"CC(C)=CCN(c1ccc(OCc2ccccc2)cc1)C1CCCN(C(=O)[C@H](CC(C)C)NC(=O)N2CCCCCC2)C1 (mixture of isomers) [Example 46, (S,R/S)-Azepane-1-carboxylic acid (1-{3-[(4-benzyloxy-phenyl)-(3-methyl-but-2-enyl)-amino]-piperidine-1-carbonyl}-3-methyl-butyl)-amide]",inhibition at 1 µM,5 μM nitrendipine,41%
same,inhibition at 10 µM,5 μM nitrendipine,91%
"CC(C)=CCN(C[C@H](C)NC(=O)[C@H](CC(C)C)NC(=O)N1CCCCCC1)c1ccc(OCc2ccccc2)cc1 (relative stereo) [Example 2, [S-(R*,R*)]-Azepane-1-carboxylic acid (1-{2-[(4-benzyloxy-phenyl)-(3-methyl-but-2-enyl)-amino]-1-methyl-ethylcarbamoyl}-3-methyl-butyl)-amide]",IMR 32 % of Blockade @ 1 μM,5 μM nitrendipine,50% @ 1
"CC(C)=CCN(C[C@H](C)NC(=O)[C@H](CC(C)C)N(C)C)c1ccc(OCc2ccccc2)cc1 (relative stereo) [Example 14, [S-(R*,R*)]-2-Dimethylamino-4-methyl-pentanoic acid {2-[(4-benzyloxy-phenyl)-(3-methyl-but-2-enyl)-amino]-1-methyl-ethyl}-amide]",IMR 32 % of Blockade @ 1 μM,5 μM nitrendipine,36%
same,IMR 32 % of Blockade @ 10 μM,5 μM nitrendipine,86%
"CC(C)=CCN[C@@H](CC(C)C)C(=O)N[C@@H](C)CN(CC=C(C)C)c1ccc(OCc2ccccc2)cc1 (relative stereo) [Example 15, [S-(R*,R*)]-4-Methyl-2-(3-methyl-but-2-enylamino)-pentanoic acid {2-[(4-benzyloxy-phenyl)-(3-methyl-but-2-enyl)-amino]-1-methyl-ethyl}-amide]",IMR 32 % of Blockade @ 0.3 μM,"0.3 μM compound, 5 μM nitrendipine",21%
same,IMR 32 % of Blockade @ 3 μM,"3 μM compound, 5 μM nitrendipine",65%
"CC(C)=CCN(C[C@H](C)NC(=O)[C@H](CC(C)C)NCCC(C)C)c1ccc(OCc2ccccc2)cc1 (relative stereo) [Example 16, [S-(R*,R*)]-4-Methyl-2-(3-methyl-butylamino)-pentanoic acid {2-[(4-benzyloxy-phenyl)-(3-methyl-but-2-enyl)-amino]-1-methyl-ethyl}-amide]",IMR 32 % of Blockade @ 1 μM,5 μM nitrendipine,36%
same,IMR 32 % of Blockade @ 10 μM,5 μM nitrendipine,86%
"CC(C)=CCN(C[C@H](C)NC(=O)[C@H](CC(C)C)N(CCC(C)C)CCC(C)C)c1ccc(OCc2ccccc2)cc1 (relative stereo) [Example 18, [S-(R*,R*)]-2-[Bis-(3-methyl-butyl)-amino]-4-methyl-pentanoic acid {2-[(4-benzyloxy-phenyl)-(3-methyl-but-2-enyl)-amino]-1-methyl-ethyl}-amide]",IMR 32 % of Blockade @ 1 μM,5 μM nitrendipine,67%
same,IMR 32 % of Blockade @ 10 μM,5 μM nitrendipine,71%
"CC(C)=CCN(C[C@H](C)NC(=O)[C@H](CC(C)C)N(CC=C(C)C)CC=C(C)C)c1ccc(OCc2ccccc2)cc1 (relative stereo) [Example 19, [S-(R*,R*)]-2-{Bis]-(3-methyl-but-2-enylamino)-4-Methyl-pentanoic acid {2-[(4-benzyloxy-phenyl)-(3-methyl-but-2-enyl)-amino]-1-methyl-ethyl 1-amide]",IMR 32 % of Blockade @ 1 μM,5 μM nitrendipine,74%
same,IMR 32 % of Blockade @ 10 μM,5 μM nitrendipine,70%
"CC(C)=CCN(c1ccc(C#CC2(O)CCCCC2)cc1)C1CCN(C(=O)C(CC(C)C)NC(=O)N2CCCCCC2)CC1 (stereo in doubt) [Example 43, (S)-Azepane-1-carboxylic acid (1-{4-[[4-(1-hydroxy-cyclohexylethynyl)-phenyl]-(3-methyl-but-2-enyl)-amino]-piperidine-1-carbonyl}-3-methyl-butyl)-amide]",IC50,"K+-stimulated Ca2+ flux, 5 μM nitrendipine to block L-type channels",3.4 µM
